Assay results: US7880006B2, “Quinoline derivatives and insecticide comprising thereof as active ingredient” (Meiji Seika Kaisha, Ltd., priority 2004, dated 2011)

How the values were obtained:
Myzus persicae = experiment: Pesticidal effect against Myzus persicae (cabbage leaf disk spray); assay type: in vivo; settings: Concentration 500 ppm; method of Test Example 3
Source text: Pesticidal Effect Against Myzus persicae
(§1) A cabbage leaf disk having a diameter of 2.8 cm was placed in a plastic schale. Test compounds, which had been diluted to designated concentrations by the addition of a 50% aqueous acetone solution (Tween 20, 0.05%), were spread over the cabbage leaf disk by means of a spray gun, and the cabbage leaf disk was then air dried. Thereafter, ten larvae at the first instar of Myzus persicae were released in the schale. The schale was then lidded, and the larvae were reared in a chamber at a constant temperature (25° C.).

Tetranychus cinnabarinus = experiment: Miticidal effect against Tetranychus cinnabarinus (kidney leaf disk, eggs/larvae/nymphs); assay type: in vivo; settings: Concentration 500 ppm; method of Test Example 4
Method: Miticidal Effect Against Tetranychus cinnabarinus
A kidney leaf disk having a diameter of 2 cm was placed on agar. Seven female adult mites of Tetranychus cinnabarinus were released on the kidney leaf disk. The female adult mites were allowed to oviposit in a chamber kept at a constant temperature (25° C.) for 24 hr. The female adult mites were then removed from the kidney leaf disk. Test compounds, which had been diluted to designated concentrations by the addition of a 50% aqueous acetone solution (Tween 20, 0.05%), were spread over the leaf disk by means of a spray gun, and the leaf disk was then air dried. Thereafter, the leaf disk was stored in a constant-temperature chamber of 25° C. […] The sum of the unhatching rate of eggs and the death rate of larva ticks/nymphs was determined as the total death rate.

Spodoptera litura = experiment: Pesticidal effect against Spodoptera litura (cabbage leaf disk spray); assay type: in vivo; settings: Concentration 200 ppm; method of Test Example 2
Source text: Pesticidal Effect Against Spodoptera litura
as §1, with “5” for “2.8”, “cup.” for “schale.”, “Five” for “Thereafter, ten”, “third” for “first”, “Spodoptera litura” for “Myzus persicae”, “cup” for “schale”

Plutella xylostella = experiment: Pesticidal effect against Plutella xylostella (cabbage leaf disk spray); assay type: in vivo; settings: Concentration 200 ppm; method of Test Example 1
Source text: Pesticidal Effect Against Plutella xylostella
as §1, with “5” for “2.8”, “cup.” for “schale.”, “Five” for “Thereafter, ten”, “second” for “first”, “Plutella xylostella” for “Myzus persicae”, “cup” for “schale”

Laodel phax striatellus = experiment: Control effect against Laodel phax striatellus (rice seedling spray); assay type: in vivo; settings: Concentration 500 ppm; method of Test Example 5
Source text: Control Effect Against Laodel phax striatellus
Test compounds, which had been diluted to designated concentrations by the addition of a 50% aqueous acetone solution (Tween 20, 0.05%), were spread over four rice seedlings (7 days after sowing) sowed in a plastic pot by means of a spray gun, followed by air drying. Thereafter, this pot was covered by a plastic cylinder, and ten larvae at the second instar of Laodel phax striatellus were released in the pot. The pot was then lidded, and the larvae were reared in a chamber at a constant temperature (25° C.).

| SMILES | melting point [°C] | Death rate, % Myzus persicae (Myzus persicae) [%] | Death rate, % Tetranychus cinnabarinus (Tetranychus cinnabarinus) [%] | Death rate, % Spodoptera litura (Spodoptera litura) [%] | Death rate, % Plutella xylostella (Plutella xylostella) [%] | Death rate, % Laodelphax striatellus (Laodel phax striatellus) [%] |
| --- | --- | --- | --- | --- | --- | --- |
| CC(=O)Oc1c(C)c(C)nc2ccc(Oc3ccc(Cl)cc3)c(Cl)c12 [Compound No. 2, 4-Acetoxy-5-chloro-6-(4-chlorophenoxy)-2,3-dimethyl-quinoline] | 167 to 169 | – | – | – | – | – |
| CC(=O)Oc1c(C)c(C)nc2cc(Cl)c(Oc3ccc(Cl)cc3)cc12 [Compound No. 22, 4-acetoxy-7-chloro-6-(4-chlorophenoxy)-2,3-dimethyl-quinoline] | 160 to 162 | – | – | – | – | – |
| COc1ccc2nc(C)c(C)c(OC(C)=O)c2c1 [JP 2633377 Compund No. 46] | – | 0 | 0 | 10 | 0 | 0 |
| CC(=O)Oc1c(C)c(C)nc2ccc(Oc3ccccc3)cc12 [WO 98055460 Compund No. 136] | – | 0 | 0 | 0 | 0 | 0 |
